Experimental data: patent publication US10519152B2, “Compounds and their use in treating cancer” (AstraZeneca AB, priority 2017, dated 2019)

Biological target: T1, Estrogen Receptor (ERα) in MCF-7 human ductal carcinoma breast cell line (Homo sapiens, UniProt P03372)
T1 construct: endogenous in cells; host or cells: MCF-7
T1 sequence (P03372 1-595): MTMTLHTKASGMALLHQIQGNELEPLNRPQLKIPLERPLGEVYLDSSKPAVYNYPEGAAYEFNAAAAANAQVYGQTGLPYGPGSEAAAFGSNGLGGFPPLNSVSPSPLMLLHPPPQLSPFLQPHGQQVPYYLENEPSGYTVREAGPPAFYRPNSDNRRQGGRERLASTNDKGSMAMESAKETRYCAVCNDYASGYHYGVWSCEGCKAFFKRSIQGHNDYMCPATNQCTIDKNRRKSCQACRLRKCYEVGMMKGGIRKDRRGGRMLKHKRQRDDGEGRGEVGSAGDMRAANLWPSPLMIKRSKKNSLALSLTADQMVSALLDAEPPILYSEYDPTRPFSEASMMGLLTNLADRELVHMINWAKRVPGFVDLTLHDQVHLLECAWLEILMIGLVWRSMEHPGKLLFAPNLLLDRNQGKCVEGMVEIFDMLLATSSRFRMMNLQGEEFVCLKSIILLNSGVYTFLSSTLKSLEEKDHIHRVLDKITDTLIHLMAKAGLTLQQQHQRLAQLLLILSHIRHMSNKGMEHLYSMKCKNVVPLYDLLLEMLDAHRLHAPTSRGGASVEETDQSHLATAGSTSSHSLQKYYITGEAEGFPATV
Assay: MCF-7 ER degradation assay (cell based immuno-fluorescence)
Details: MCF-7 cells; for ER degradation ≥ 90% at 0.3 μM: ER degradation by fulvestrant at 0.3 μM is defined as 100%; for DC50: 18-22 hours incubation, 50% reduction of ERα expression, single experiment or average of two or more, read-out: MCF-7 ER degradation IC50
In short: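 MCF-7 human ductal carcinoma breast cells were seeded at 3.75×10^4 cells per mL (40 μL per well) in 384 well plates with phenol red free DMEM containing 2 mM L-Glutamine and 5% (v/v) Charcoal/Dextran treated foetal calf serum. After overnight culture, compounds were acoustically dispensed, incubated 18-22 hours, then cells were formaldehyde-fixed and immunostained for ERα.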

SMILES | ER degradation ≥ 90% at 0.3 μM | DC50 [nM]
Cc1ncsc1-c1ccc(CNC(=O)[C@@H]2C[C@@H](O)CN2C(=O)[C@@H](NC(=O)COCCOCCCCCOc2cnc([C@@H]3c4[nH]c5ccccc5c4C[C@@H](C)N3CC(C)(F)F)c(F)c2)C(C)(C)C)cc1 [Example 164, (2S,4R)-1-((S)-2-(2-(2-((5-((6-((1S,3R)-2-(2,2-Difluoropropyl)-3-methyl-2,3,4,9-tetrahydro-1H-pyrido[3,4-b]indol-1-yl)-5-fluoropyridin-3-yl)oxy)pentyl)oxy)ethoxy)acetamido)-3,3-dimethylbutanoyl)-4-hydroxy-N-(4-(4-methylthiazol-5-yl)benzyl)pyrrolidine-2-carboxamide] | •• | 4.2
Cc1ncsc1-c1ccc([C@H](C)NC(=O)[C@@H]2C[C@@H](O)CN2C(=O)[C@@H](NC(=O)C(F)(F)OCCOCCCCOc2cc(F)c([C@@H]3c4[nH]c5ccccc5c4C[C@@H](C)N3CC(C)(C)F)c(F)c2)C(C)(C)C)cc1 [Example 122, (2S,4R)-1-((S)-2-(2-(2-(4-(3,5-Difluoro-4-((1R,3R)-2-(2-fluoro-2-methylpropyl)-3-methyl-2,3,4,9-tetrahydro-1H-pyrido[3,4-b]indol-1-yl)phenoxy)butoxy)ethoxy)-2,2-difluoroacetamido)-3,3-dimethylbutanoyl)-4-hydroxy-N—((S)-1-(4-(4-methylthiazol-5-yl)phenyl)ethyl)pyrrolidine-2-carboxamide] | • | 2
CC(=O)O[C@@H]1C[C@@H](C(=O)NCc2ccc(-c3scnc3C)cc2)N(C(=O)[C@@H](NC(=O)COCCOCCOCCOc2cc(F)c([C@@H]3c4[nH]c5ccccc5c4C[C@@H](C)N3CC(C)(C)F)c(F)c2)C(C)(C)C)C1 [Example 34, (3R,5S)-1-((S)-2-(tert-Butyl)-14-(3,5-difluoro-4-((1R,3R)-2-(2-fluoro-2-methylpropyl)-3-methyl-2,3,4,9-tetrahydro-1H-pyrido[3,4-b]indol-1-yl)phenoxy)-4-oxo-6,9,12-trioxa-3-azatetradecanoyl)-5-((4-(4-methylthiazol-5-yl)benzyl)carbamoyl)pyrrolidin-3-yl Acetate] | • | 1
Cc1ncsc1-c1ccc(CNC(=O)[C@@H]2C[C@@H](O)CN2C(=O)[C@@H](NC(=O)COCCc2ccc(COc3cc(F)c([C@@H]4c5[nH]c6ccccc6c5C[C@@H](C)N4CC(C)(C)F)c(F)c3)nc2)C(C)(C)C)cc1 [Example 158, (2S,4R)-1-((S)-2-(2-(2-(6-((3,5-Difluoro-4-((1R,3R)-2-(2-fluoro-2-methylpropyl)-3-methyl-2,3,4,9-tetrahydro-1H-pyrido[3,4-b]indol-1-yl)phenoxy)methyl)pyridin-3-yl)ethoxy)acetamido)-3,3-dimethylbutanoyl)-4-hydroxy-N-(4-(4-methylthiazol-5-yl)benzyl)pyrrolidine-2-carboxamide] | • | 0.8
Cc1ncsc1-c1ccc(CNC(=O)[C@@H]2C[C@@H](O)CN2C(=O)[C@@H](NC(=O)COCCCOCCOc2ccc([C@@H]3c4[nH]c5ccccc5c4C[C@@H](C)N3CC(F)F)nc2)C(C)(C)C)cc1 [Example 26, (2S,4R)-1-((S)-2-(2-(3-(2-((6-((1S,3R)-2-(2,2-Difluoroethyl)-3-methyl-2,3,4,9-tetrahydro-1H-pyrido[3,4-b]indol-1-yl)pyridin-3-yl)oxy)ethoxy)propoxy)acetamido)-3,3-dimethylbutanoyl)-4-hydroxy-N-(4-(4-methylthiazol-5-yl)benzyl)pyrrolidine-2-carboxamide] | • | 7.5
Cc1ncsc1-c1ccc(CNC(=O)[C@@H]2C[C@@H](O)CN2C(=O)[C@@H](NC(=O)CCCOCCCCCCOc2cc(F)c([C@@H]3c4[nH]c5ccccc5c4C[C@@H](C)N3CC(C)(C)F)c(F)c2)C(C)(C)C)cc1 [Example 112, (2S,4R)-1-((S)-2-(4-((6-(3,5-difluoro-4-((1R,3R)-2-(2-fluoro-2-methylpropyl)-3-methyl-2,3,4,9-tetrahydro-1H-pyrido[3,4-b]indol-1-yl)phenoxy)hexyl)oxy)butanamido)-3,3-dimethylbutanoyl)-4-hydroxy-N-(4-(4-methylthiazol-5-yl)benzyl)pyrrolidine-2-carboxamide] | •• | 2.2
Cc1ncsc1-c1ccc([C@@H](CN(C)C)NC(=O)[C@@H]2C[C@@H](O)CN2C(=O)[C@@H](NC(=O)COCCOCCOCCOc2cc(F)c([C@@H]3c4[nH]c5ccccc5c4C[C@@H](C)N3CC(C)(C)F)c(F)c2)C(C)(C)C)cc1 [Example 107, (2S,4R)-1-[(2S)-2-[[2-[2-[2-[2-[3,5-Difluoro-4-[(1R,3R)-2-(2-fluoro-2-methyl-propyl)-3-methyl-1,3,4,9-tetrahydropyrido[3,4-b]indol-1-yl]phenoxy]ethoxy]ethoxy]ethoxy]acetyl]amino]-3,3-dimethyl-butanoyl]-N-[(1S)-2-(dimethylamino)-1-[4-(4-methylthiazol-5-yl)phenyl]ethyl]-4-hydroxy-pyrrolidine-2-carboxamide] | •• | 1
Cc1ncsc1-c1ccc(CNC(=O)[C@@H]2C[C@@H](O)CN2C(=O)[C@@H](NC(=O)COCCc2ccc(COc3cc(F)c([C@@H]4c5[nH]c6ccccc6c5C[C@@H](C)N4CC(C)(C)F)c(F)c3)cc2)C(C)(C)C)cc1 [Example 53, (2S,4R)-1-((S)-2-(2-(4-((3,5-difluoro-4-((1R,3R)-2-(2-fluoro-2-methylpropyl)-3-methyl-2,3,4,9-tetrahydro-1H-pyrido[3,4-b]indol-1-yl)phenoxy)methyl)phenethoxy)acetamido)-3,3-dimethylbutanoyl)-4-hydroxy-N-(4-(4-methylthiazol-5-yl)benzyl)pyrrolidine-2-carboxamide] | • | 3.5
Cc1ncsc1-c1ccc(CNC(=O)[C@@H]2C[C@@H](O)CN2C(=O)[C@@H](NC(=O)CCCc2ccc(COc3cc(F)c([C@@H]4c5[nH]c6ccccc6c5C[C@@H](C)N4CC(C)(C)F)c(F)c3)nc2)C(C)(C)C)cc1 [Example 141, (2S,4R)-1-((S)-2-(4-(6-((3,5-Difluoro-4-((1R,3R)-2-(2-fluoro-2-methylpropyl)-3-methyl-2,3,4,9-tetrahydro-1H-pyrido[3,4-b]indol-1-yl)phenoxy)methyl)pyridin-3-yl)butanamido)-3,3-dimethylbutanoyl)-4-hydroxy-N-(4-(4-methylthiazol-5-yl)benzyl)pyrrolidine-2-carboxamide] | • | 0.9
Cc1ncsc1-c1ccc(CNC(=O)[C@@H]2C[C@@H](O)CN2C(=O)[C@@H](NC(=O)COCCCOCCCCOc2cc(F)c([C@@H]3c4[nH]c5ccccc5c4C[C@@H](C)N3CC(C)(C)F)c(F)c2)C(C)(C)C)cc1 [Example 129, (2S,4R)-1-((S)-2-(2-(3-(4-(3,5-Difluoro-4-((1R,3R)-2-(2-fluoro-2-methylpropyl)-3-methyl-2,3,4,9-tetrahydro-1H-pyrido[3,4-b]indol-1-yl)phenoxy)butoxy)propoxy)acetamido)-3,3-dimethylbutanoyl)-4-hydroxy-N-(4-(4-methylthiazol-5-yl)benzyl)pyrrolidine-2-carboxamide] | •• | 0.8
Cc1ncsc1-c1ccc(CNC(=O)[C@@H]2C[C@@H](O)CN2C(=O)[C@@H](NC(=O)COCCCCCCCOc2ccc([C@@H]3c4[nH]c5ccccc5c4C[C@@H](C)N3CC(F)F)nc2)C(C)(C)C)cc1 [Example 6, (2S,4R)-1-((S)-2-(2-((7-((6-((1S,3R)-2-(2,2-Difluoroethyl)-3-methyl-2,3,4,9-tetrahydro-1H-pyrido[3,4-b]indol-1-yl)pyridin-3-yl)oxy)heptyl)oxy)acetamido)-3,3-dimethylbutanoyl)-4-hydroxy-N-(4-(4-methylthiazol-5-yl)benzyl)pyrrolidine-2-carboxamide] | •• | 3.6
Cc1ncsc1-c1ccc(CNC(=O)[C@@H]2C[C@@H](O)CN2C(=O)[C@@H](NC(=O)COCCCCCNCCOc2cc(F)c([C@@H]3c4[nH]c5ccccc5c4C[C@@H](C)N3CC(C)(C)F)c(F)c2)C(C)(C)C)cc1 [Example 48, (2S,4R)-1-((S)-2-(2-((5-((2-(3,5-difluoro-4-((1R,3R)-2-(2-fluoro-2-methylpropyl)-3-methyl-2,3,4,9-tetrahydro-1H-pyrido[3,4-b]indol-1-yl)phenoxy)ethyl)amino)pentyl)oxy)acetamido)-3,3-dimethylbutanoyl)-4-hydroxy-N-(4-(4-methylthiazol-5-yl)benzyl)pyrrolidine-2-carboxamide] | • | 1.8
